pIC50: −log10 of the molar value. Where a name gives a salt, the structure may show the parent alone.
Columns and labels:
MIA PaCa-2 cells = experiment: MIA PaCa2 cell-based assay (1,536-well high-content imaging ALDEFLUOR assay); parameters: species or system human; settings: Homo sapiens, 0.5 h, ALDEFLUOR BAAA substrate 500 nM, 30 minutes
Method in brief: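 High-content ALDEFLUOR imaging readout: BAA-retaining cells in FITC channel scored against Hoechst-counted nuclei. Before imaging, MIA PaCa-2 cells seeded at 1,000 per well received final 500 nM BAAA and 0.5 nM Hoechst with compounds in 16-point series (1.4 nM to 47.8 μM), 30 min, 37° C.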

ALDH1A1 enzyme = biological target: T1, ALDH1A1 enzyme (Homo sapiens, UniProt P00352); experiment: ALDH1A1 enzymatic assay (in vitro); assay type: biochemical; settings: ALDH1A1 enzyme 20 nM, NAD+ 1 mM, propionaldehyde 80 μM; read-out: ALDH1A1 IC50
T1 sequence (P00352 1-501): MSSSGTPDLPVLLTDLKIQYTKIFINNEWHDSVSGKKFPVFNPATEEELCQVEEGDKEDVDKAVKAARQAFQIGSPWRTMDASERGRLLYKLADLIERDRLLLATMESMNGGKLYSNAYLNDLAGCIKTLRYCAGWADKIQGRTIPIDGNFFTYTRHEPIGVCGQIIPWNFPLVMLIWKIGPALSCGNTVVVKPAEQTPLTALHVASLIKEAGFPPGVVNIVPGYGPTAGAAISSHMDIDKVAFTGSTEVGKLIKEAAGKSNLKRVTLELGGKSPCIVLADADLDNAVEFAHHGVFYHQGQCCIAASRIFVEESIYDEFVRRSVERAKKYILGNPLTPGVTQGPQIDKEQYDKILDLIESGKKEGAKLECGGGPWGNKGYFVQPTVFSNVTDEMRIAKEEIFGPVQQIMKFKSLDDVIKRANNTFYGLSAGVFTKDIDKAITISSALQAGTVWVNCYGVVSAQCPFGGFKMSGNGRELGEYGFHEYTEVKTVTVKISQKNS
Method: Example 358. ALDH1A1 Enzymatic Assay (In Vitro Assay)
3 μL of ALDH1A1 enzyme (final concentration 20 nM) or assay buffer (100 mM HEPES pH 7.5 with 0.01% Tween 20) were dispensed into a 1,536-well solid-bottom black plate (Greiner Bio One, Monroe, N.C.) followed by pin-tool transfer (23 nL) of candidate inhibitors (final concentration range 968 pM to 57.2 μM) and control (Bay 11-7085, final concentration range 1.31 nM to 2.86 μM). Samples were incubated (RT, protected from light) for 15 minutes followed by a 1 μL substrate addition of NAD^+ and Propionaldehyde (final concentrations of 1 mM and 80 μM, respectively). Plates were centrifuged at 1,000 rpm for 15 seconds, then read in kinetic mode on a ViewLux High-throughput CCD imager (Perkin-Elmer) equipped with standard UV fluorescence optics (340 nm excitation, 450 nm emission) for 10 minutes. The change in fluorescence intensity over the 10-minute reaction period was normalized against no-inhibitor and no-enzyme controls and the resulting percent inhibition data were fitted for biological activity.

| pIC50 (MIA PaCa-2 cells) | pIC50 (ALDH1A1 enzyme) | Compound |
| --- | --- | --- |
| 5.00 to 6.00 | > 6.30 | CC1(C#N)CCN(c2c(C(=O)N3CCN(S(C)(=O)=O)CC3)cnc3ccc(Cl)cc23)CC1 [Example 119, 1-(6-chloro-3-(4-(methylsulfonyl)piperazine-1-carbonyl)quinolin-4-yl)-4-methylpiperidine-4-carbonitrile] |
| > 6.30 | > 6.30 | CS(=O)(=O)C1CCN(C(=O)c2cnc3ccc(F)cc3c2-c2ccc(C3(C#N)CC3)cc2)CC1 [Example 266, 1-(4-(6-fluoro-3-(4-(methylsulfonyl)piperidine-1-carbonyl)quinolin-4-yl)phenyl)cyclopropanecarbonitrile] |
| 6.00 to 6.30 | > 6.30 | N#CC1(c2ccccc2)CCN(c2c(C(=O)N3CCC(O)CC3)cnc3ccc(F)cc23)CC1 [Cpd. 331, 1-(6-fluoro-3-(4-hydroxypiperidine-1-carbonyl)quinolin-4-yl)-4-phenylpiperidine-4-carbonitrile] |
| 5.00 to 6.00 | > 6.30 | COc1cc2ncc(C(=O)N3CCN(S(C)(=O)=O)CC3)c(N3CCC(C)(C#N)CC3)c2cc1OC [Example 113, 1-(6,7-dimethoxy-3-(4-(methylsulfonyl)piperazine-1-carbonyl)quinolin-4-yl)-4-methylpiperidine-4-carbonitrile] |
| < 5.00 | > 6.30 | O=C(c1cnc2c(F)cc(F)cc2c1N1CCC2(CC1)OCCO2)N1CCN(C(=O)N2CCCC2)CC1 [Example 160, (6,8-difluoro-4-(1,4-dioxa-8-azaspiro[4.5]decan-8-yl)quinolin-3-yl)(4-(pyrrolidine-1-carbonyl)piperazin-1-yl)methanone] |
| < 5.00 | 6.00 to 6.30 | O=C(c1cnc2ccc(F)cc2c1N1CCC2(CC1)OCCO2)N1CCS(=O)(=O)CC1 [Example 53, (1,1-dioxidothiomorpholino)(6-fluoro-4-(1,4-dioxa-8-azaspiro[4.5]decan-8-yl)quinolin-3-yl)methanone] |
| 5.00 to 6.00 | 5.00 to 6.00 | CC1(C#N)CCN(c2c(C(=O)N3CCN(C(=O)N4CCCC4)CC3)cnc3c(F)cc(F)cc23)CC1 [Example 165, 1-(6,8-difluoro-3-(4-(pyrrolidine-1-carbonyl)piperazine-1-carbonyl)quinolin-4-yl)-4-methylpiperidine-4-carbonitrile] |
| < 5.00 | 6.00 to 6.30 | CCNC(=O)N1CCN(C(=O)c2cnc3c(F)cc(F)cc3c2N2CCC(C)(C#N)CC2)CC1 [Example 145, 4-(4-(4-cyano-4-methylpiperidin-1-yl)-6,8-difluoroquinoline-3-carbonyl)-N-ethylpiperazine-1-carboxamide] |
| 5.00 to 6.00 | > 6.30 | CCS(=O)(=O)N1CCN(C(=O)c2cnc3c(F)cc(F)cc3c2N2CCC(C)(C#N)CC2)CC1 [Example 166, 1-(3-(4-(ethylsulfonyl)piperazine-1-carbonyl)-6,8-difluoroquinolin-4-yl)-4-methylpiperidine-4-carbonitrile] |
| 5.00 to 6.00 | > 6.30 | COc1ccc2c(N3CCC(C)(C#N)CC3)c(C(=O)N3CCN(C(=O)C4CC4)CC3)cnc2c1 [Example 101, 1-(3-(4-(cyclopropanecarbonyl)piperazine-1-carbonyl)-7-methoxyquinolin-4-yl)-4-methylpiperidine-4-carbonitrile] |
| < 5.00 | 5.00 to 6.00 | C[C@@H]1CN(C(=O)C2CC2)C[C@H](C)N1C(=O)c1cnc2ccc(F)cc2c1N1CCC(C)(C#N)CC1 [Example 240, 1-(3-((2S*,6R*)-4-(cyclopropanecarbonyl)-2,6-dimethylpiperazine-1-carbonyl)-6-fluoroquinolin-4-yl)-4-methylpiperidine-4-carbonitrile] |
| > 6.30 | > 6.30 | CS(=O)(=O)N1CCN(C(=O)c2cnc3ccc(F)cc3c2-c2ccc(/C(C#N)=C/C3CC3)cc2)CC1 [Cpd. 357, (Z)-3-cyclopropyl-2-(4-(6-fluoro-3-(4-(methylsulfonyl)piperazine-1-carbonyl)quinolin-4-yl)phenyl)acrylonitrile] |

More lines, now with the values behind:

| Compound | pIC50 (MIA PaCa-2 cells) | pIC50 (ALDH1A1 enzyme) |
| --- | --- | --- |
| CS(=O)(=O)N1CCN(C(=O)c2cnc3ccc(F)cc3c2N2CCN(S(=O)(=O)C3CC3)CC2)CC1 [Example 252, (4-(4-(cyclopropylsulfonyl)piperazin-1-yl)-6-fluoroquinolin-3-yl)(4-(methylsulfonyl)piperazin-1-yl)methanone] | < 5.00 | > 6.30 |
| CC(=O)C1(c2ccccc2)CCN(c2c(C(=O)N3CCN(S(=O)(=O)N(C)C)CC3)cnc3ccc(F)cc23)CC1 [Example 268, 4-(4-(4-acetyl-4-phenylpiperidin-1-yl)-6-fluoroquinoline-3-carbonyl)-N,N-dimethylpiperazine-1-sulfonamide] | > 6.30 | > 6.30 |
| Cn1ncc2c(N3CCC(C)(C#N)CC3)c(C(=O)N3CCN(C(=O)C4CC4)CC3)cnc21 [Example 205, 1-(5-(4-(cyclopropanecarbonyl)piperazine-1-carbonyl)-1-methyl-1H-pyrazolo[3,4-b]pyridin-4-yl)-4-methylpiperidine-4-carbonitrile] | 5.00 to 6.00 | > 6.30 |
| CCS(=O)(=O)N1CCN(C(=O)c2cnc3ccc(F)cc3c2N2CCC3(CC2)OCCO3)CC1 [Example 151, (4-(ethylsulfonyl)piperazin-1-yl)(6-fluoro-4-(1,4-dioxa-8-azaspiro[4.5]decan-8-yl)quinolin-3-yl)methanone] | 5.00 to 6.00 | > 6.30 |
| CCOC(=O)N1CCN(C(=O)c2cnc3cc(OC)ccc3c2N2CCC(C)(C#N)CC2)CC1 [Example 108, Ethyl 4-(4-(4-cyano-4-methylpiperidin-1-yl)-7-methoxyquinoline-3-carbonyl)piperazine-1-carboxylate] | 5.00 to 6.00 | > 6.30 |
| CS(=O)(=O)N1CCN(C(=O)c2ccc3ccccc3c2-c2ccc(C3(C#N)CC3)cc2)CC1 [Example 300, 1-(4-(2-(4-(methylsulfonyl)piperazine-1-carbonyl)naphthalen-1-yl)phenyl)cyclopropanecarbonitrile] | > 6.30 | > 6.30 |
| CCN(CC)C(=O)N1CCN(C(=O)c2cnc3ccc(F)cc3c2N2CCC(C)(C#N)CC2)CC1 [Example 154, 4-(4-(4-cyano-4-methylpiperidin-1-yl)-6-fluoroquinoline-3-carbonyl)-N,N-diethylpiperazine-1-carboxamide] | 5.00 to 6.00 | > 6.30 |
| COc1ccc2ncc(C(=O)N3CCN(S(C)(=O)=O)CC3)c(N3CCC4(CC3)OCCO4)c2c1 [Example 13, (6-methoxy-4-(1,4-dioxa-8-azaspiro[4.5]decan-8-yl)quinolin-3-yl)(4-(methylsulfonyl)piperazin-1-yl)methanone, TFA] | 5.00 to 6.00 | > 6.30 |
| COc1ccc2ncc(C(=O)N3CCC(N4CCCC4)CC3)c(N3CCC4(CC3)OCCO4)c2c1 [Example 11, (6-methoxy-4-(1,4-dioxa-8-azaspiro[4.5]decan-8-yl)quinolin-3-yl)(4-(pyrrolidin-1-yl)piperidin-1-yl)methanone, TFA] | < 5.00 | < 5.00 |
| CCC(=O)N1CCN(C(=O)c2cnc3cc(OC)c(OC)cc3c2N2CCC(C)(C#N)CC2)CC1 [Example 110, 1-(6,7-dimethoxy-3-(4-propionylpiperazine-1-carbonyl)quinolin-4-yl)-4-methylpiperidine-4-carbonitrile] | 5.00 to 6.00 | > 6.30 |
| CCN(CC)C(=O)N1CCN(C(=O)c2cnc3ccc(F)cc3c2N2CCC3(CC2)OCCO3)CC1 [Example 149, N,N-diethyl-4-(6-fluoro-4-(1,4-dioxa-8-azaspiro[4.5]decan-8-yl)quinoline-3-carbonyl)piperazine-1-carboxamide] | 5.00 to 6.00 | > 6.30 |
| CCNC(=O)N1CCN(C(=O)c2cnc3c(F)c(OC)c(F)cc3c2N2CCC3(CC2)OCCO3)CC1 [Example 143, 4-(6,8-difluoro-7-methoxy-4-(1,4-dioxa-8-azaspiro[4.5]decan-8-yl)quinoline-3-carbonyl)-N-ethylpiperazine-1-carboxamide] | 5.00 to 6.00 | > 6.30 |
| CCNC(=O)N1CCN(C(=O)c2cnc3cc(F)c(F)cc3c2N2CCC(C)(C#N)CC2)CC1 [Example 146, 4-(4-(4-cyano-4-methylpiperidin-1-yl)-6,7-difluoroquinoline-3-carbonyl)-N-ethylpiperazine-1-carboxamide] | 5.00 to 6.00 | 6.00 to 6.30 |
